Test results published in ChEMBL document CHEMBL3774317, “Design and synthesis of novel tamoxifen analogues that avoid CYP2D6 metabolism” (Eur J Med Chem, 2016).

Columns and labels:
[1] = Cytotoxicity against human SF268 cells assessed as cell growth at 0.5 uM after 48 hrs by SRB assay; type: functional; details: SF-268, 48 h, read-out: Activity
[2] = Cytotoxicity against human HOP62 cells assessed as cell growth at 5 uM after 48 hrs by SRB assay; type: functional; details: HOP-62, 48 h, read-out: Activity
NCI-H460 [3] = assay: Cytotoxicity against human NCI-H460 cells assessed as cell growth at 5 nM after 48 hrs by SRB assay; type: functional; details: NCI-H460, 48 h, read-out: Activity
[4] = Cytotoxicity against human SNB75 cells assessed as cell growth at 50 nM after 48 hrs by SRB assay; type: functional; details: SNB-75, 48 h, read-out: Activity
[5] = Cytotoxicity against human MOLT4 cells assessed as cell growth at 50 nM after 48 hrs by SRB assay; type: functional; details: MOLT-4, 48 h, read-out: Activity
MDA-MB-435 = assay: Cytotoxicity against human MDA-MB-435 cells assessed as cell growth at 5 nM after 48 hrs by SRB assay; type: functional; details: MDA-MB-435, 48 h, read-out: Activity
NCI-H460 [6] = assay: Cytotoxicity against human NCI-H460 cells assessed as cell growth at 50 nM after 48 hrs by SRB assay; type: functional; details: NCI-H460, 48 h, read-out: Activity
M14 = assay: Cytotoxicity against human M14 cells assessed as cell growth at 50 uM after 48 hrs by SRB assay; type: functional; details: M14, 48 h, read-out: Activity
T47D [7] = assay: Cytotoxicity against human T47D cells assessed as cell growth at 5 uM after 48 hrs by SRB assay; type: functional; details: read-out: Activity
A549 [8] = assay: Cytotoxicity against human A549 cells assessed as cell growth at 50 uM after 48 hrs by SRB assay; type: functional; details: A549, 48 h, read-out: Activity
MDA-MB-468 = assay: Cytotoxicity against human MDA-MB-468 cells assessed as cell growth at 5 uM after 48 hrs by SRB assay; type: functional; details: MDA-MB-468, 48 h, read-out: Activity
SK-MEL-5 = assay: Cytotoxicity against human SK-MEL-5 cells assessed as cell growth at 0.5 uM after 48 hrs by SRB assay; type: functional; details: SK-MEL-5, 48 h, read-out: Activity
[9] = Metabolic stability in human hepatocytes assessed as remaining parent compound level at 10 uM measured immediately after compound addition by LC/MS analysis; type: ADME, cell-based, Hepatocyte; details: read-out: Drug metabolism
[10] = Cytotoxicity against human SKOV3 cells assessed as cell growth at 50 nM after 48 hrs by SRB assay; type: functional; details: SK-OV-3, 48 h, read-out: Activity
[11] = Cytotoxicity against human PC3 cells assessed as cell growth at 50 nM after 48 hrs by SRB assay; type: functional; details: PC-3, 48 h, read-out: Activity
[12] = Cytotoxicity against human HL-60(TB) cells assessed as cell growth at 5 nM after 48 hrs by SRB assay; type: functional; details: HL-60, 48 h, read-out: Activity
[13] = Cytotoxicity against human OVCAR5 cells assessed as cell growth at 50 uM after 48 hrs by SRB assay; type: functional; details: OVCAR-5, 48 h, read-out: Activity
A498 = assay: Cytotoxicity against human A498 cells assessed as cell growth at 10^-6 M after 48 hrs by SRB assay; type: functional; details: A498, 48 h, read-out: Activity
[14] = Cytotoxicity against human UO31 cells assessed as cell growth at 10^-6 M after 48 hrs by SRB assay; type: functional; details: UO-31, 48 h, read-out: Activity
NCI-H460 [15] = assay: Cytotoxicity against human NCI-H460 cells assessed as cell growth at 10^-8 M after 48 hrs by SRB assay; type: functional; details: NCI-H460, 48 h, read-out: Activity
[16] = Cytotoxicity against human DU145 cells assessed as cell growth at 10^-6 M after 48 hrs by SRB assay; type: functional; details: DU-145, 48 h, read-out: Activity
EKVX = assay: Cytotoxicity against human EKVX cells assessed as cell growth at 10^-8 M after 48 hrs by SRB assay; type: functional; details: read-out: Activity
HT-29 = assay: Cytotoxicity against human HT-29 cells assessed as cell growth at 10^-6 M after 48 hrs by SRB assay; type: functional; details: HT-29, 48 h, read-out: Activity
[17] = Cytotoxicity against human COLO205 cells assessed as cell growth at 10^-5 M after 48 hrs by SRB assay; type: functional; details: COLO 205, 48 h, read-out: Activity
A549 [18] = assay: Cytotoxicity against human A549 cells assessed as cell growth at 10^-6 M after 48 hrs by SRB assay; type: functional; details: A549, 48 h, read-out: Activity
U-251 = assay: Cytotoxicity against human U251 cells assessed as cell growth at 10^-8 M after 48 hrs by SRB assay; type: functional; details: U-251, 48 h, read-out: Activity
[19] = Cytotoxicity against human LOXIMVI cells assessed as cell growth at 10^-5 M after 48 hrs by SRB assay; type: functional; details: LOX IMVI, read-out: Activity
T47D [20] = assay: Cytotoxicity against human T47D cells assessed as cell growth at 10^-7 M after 48 hrs by SRB assay; type: functional; details: read-out: Activity
NCI-H322M = assay: Cytotoxicity against human NCI-H322M cells assessed as cell growth at 10^-8 M after 48 hrs by SRB assay; type: functional; details: read-out: Activity
SR = assay: Cytotoxicity against human SR cells assessed as cell growth at 10^-5 M after 48 hrs by SRB assay; type: functional; details: read-out: Activity
[21] = Cytotoxicity against human HL-60(TB) cells assessed as cell growth at 10^-7 M after 48 hrs by SRB assay; type: functional; details: HL-60, 48 h, read-out: Activity
[22] = Cytotoxicity against human MOLT4 cells assessed as cell growth at 10^-5 M after 48 hrs by SRB assay; type: functional; details: MOLT-4, 48 h, read-out: Activity
[23] = Cytotoxicity against human SNB19 cells assessed as cell growth at 10^-8 M after 48 hrs by SRB assay; type: functional; details: SNB-19, 48 h, read-out: Activity
[24] = Cytotoxicity against human NCI-ADR-RES cells assessed as cell growth at 10^-4 M after 48 hrs by SRB assay; type: functional; details: read-out: Activity
[25] = Cytotoxicity against human NCI-ADR-RES cells assessed as cell growth at 10^-7 M after 48 hrs by SRB assay; type: functional; details: read-out: Activity
[26] = Cytotoxicity against human OVCAR3 cells assessed as cell growth at 10^-5 M after 48 hrs by SRB assay; type: functional; details: OVCAR-3, 48 h, read-out: Activity
CCRF-CEM = assay: Cytotoxicity against human CCRF-CEM cells assessed as cell growth at 10^-7 M after 48 hrs by SRB assay; type: functional; details: read-out: Activity
[27] = Cytotoxicity against human COLO205 cells assessed as cell growth at 10^-7 M after 48 hrs by SRB assay; type: functional; details: COLO 205, 48 h, read-out: Activity
K562 = assay: Cytotoxicity against human K562 cells assessed as cell growth at 10^-8 M after 48 hrs by SRB assay; type: functional; details: K562, 48 h, read-out: Activity
[28] = Cytotoxicity against human HL-60(TB) cells assessed as cell growth at 10^-8 M after 48 hrs by SRB assay; type: functional; details: HL-60, 48 h, read-out: Activity
[29] = Cytotoxicity against human HCC2998 cells assessed as cell growth at 10^-5 M after 48 hrs by SRB assay; type: functional; details: HCC 2998, 48 h, read-out: Activity
ACHN = assay: Cytotoxicity against human ACHN cells assessed as cell growth at 10^-5 M after 48 hrs by SRB assay; type: functional; details: read-out: Activity

Q: For `CCCCCCCCCC(=O)Oc1ccc(/C(=C(/C)c2ccccc2)c2ccc(OCCN3CCCC3)cc2)cc1`, which growth at 0.5 µM [1] is on record?
A: 73%

Q: And the growth at 5 µM [2]?
A: 91%

Q: What about the growth at 0.005 µM (NCI-H460 [3]) of the same compound?
A: 102%

Q: And the growth at 0.05 µM [4]?
A: 83%

Q: What about the growth at 0.05 µM [5] of the same compound?
A: 91%

Q: What about the growth at 0.005 µM (MDA-MB-435) of the same compound?
A: 99%

Q: And the growth at 0.05 µM (NCI-H460 [6])?
A: 102%

Q: And the growth at 50 µM (M14)?
A: -81%

Q: What about the growth at 5 µM (T47D [7]) of the same compound?
A: 52%

Q: What about the growth at 50 µM (A549 [8]) of the same compound?
A: -82%

Q: And the growth at 5 µM (MDA-MB-468)?
A: 76%

Q: What about the growth at 0.5 µM (SK-MEL-5) of the same compound?
A: 62%

Q: What about the remaining at 0 h, 10 µM [9] of the same compound?
A: 29%

Q: And the growth at 0.05 µM [10]?
A: 90%

Q: What about the growth at 0.05 µM [11] of the same compound?
A: 97%

Q: What about the growth at 0.005 µM [12] of the same compound?
A: 101%

Q: What about the growth at 50 µM [13] of the same compound?
A: -84%

Q: For `C/C(=C(/c1ccc(O)cc1)c1ccc(OCCN2CCCC2)cc1)c1ccccc1`, which growth at 1 µM (A498) is on record?
A: 66%

Q: And the growth at 1 µM [14]?
A: 78%

Q: And the growth at 0.01 µM (NCI-H460 [15])?
A: 106%

Q: What about the growth at 1 µM [16] of the same compound?
A: 94%

Q: What about the growth at 0.01 µM (EKVX) of the same compound?
A: 91%

Q: What about the growth at 1 µM (HT-29) of the same compound?
A: 67%

Q: What about the growth at 10 µM [17] of the same compound?
A: -79%

Q: What about the growth at 1 µM (A549 [18]) of the same compound?
A: 106%

Q: What about the growth at 0.01 µM (U-251) of the same compound?
A: 103%

Q: And the growth at 10 µM [19]?
A: -86%

Q: What about the growth at 0.1 µM (T47D [20]) of the same compound?
A: 63%

Q: What about the growth at 0.01 µM (NCI-H322M) of the same compound?
A: 97%

Q: And the growth at 10 µM (SR)?
A: -25%

Q: What about the growth at 0.1 µM [21] of the same compound?
A: 99%

Q: What about the growth at 10 µM [22] of the same compound?
A: 3%

Q: What about the growth at 0.01 µM [23] of the same compound?
A: 104%

Q: And the growth at 100 µM [24]?
A: -70%

Q: What about the growth at 0.1 µM [25] of the same compound?
A: 97%

Q: And the growth at 10 µM [26]?
A: 35%

Q: What about the growth at 0.1 µM (CCRF-CEM) of the same compound?
A: 113%

Q: And the growth at 0.1 µM [27]?
A: 96%

Q: What about the growth at 0.01 µM (K562) of the same compound?
A: 99%

Q: And the growth at 0.01 µM [28]?
A: 97%

Q: What about the growth at 10 µM [29] of the same compound?
A: -25%

Q: And the growth at 10 µM (ACHN)?
A: 25%
